Source: ChEMBL document CHEMBL1201862, “PubChem BioAssay data set” (2004)
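Where inhibition never reached the appropriate level, the endpoint shown equals the highest concentration tested. Otherwise, values were interpolated linearly from a five-concentration, 48-hour dose response in 96-well plates. GI50 is the concentration that inhibits growth by half.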 Active and inactive are the calls of the source. Rule as the data show it: active = GI50 up to about 1.1 µM and inactive = higher.

What was measured:
Experiment in all cases: growth of human tumour cells (NCI), 48 h
M19-MEL = test system: M19-MEL
DLD-1 = test system: DLD-1
DMS-273 = test system: DMS-273
LXFL 529 = test system: LXFL 529
RXF 631 = test system: RXF 631
HOP-18 = test system: HOP-18
KM-20L2 = test system: KM-20L2
BT-549 = test system: BT-549
XF498 = test system: XF498

| Compound | GI50 (DLD-1) | GI50 (DMS-273) | GI50 (LXFL 529) | GI50 (BT-549) | other results |
| --- | --- | --- | --- | --- | --- |
| Cc1ccc(NC(=O)CCCC(=O)CC(=O)c2ccc(Br)cc2)cc1 | > 100 µM (inactive) | > 100 µM (inactive) | > 100 µM (inactive) | – | GI50 (M19-MEL): > 100 µM (inactive); GI50 (RXF 631): > 100 µM (inactive); GI50 (HOP-18): > 100 µM (inactive); GI50 (KM-20L2): > 100 µM (inactive) |
| C1=C\CCCCN2C[C@H]3CCCC/C=C\CCCCN4CC[C@@H]([C@H](CCCCCC/1)C4)[C@H](C3)C2 | – | – | – | 6.79 µM (inactive) | – |
| FC1(F)ON2CCc3ccccc3C2[C@H]1c1ccccc1 (stereo not given in full) | – | – | – | > 10 µM (inactive) | – |
| CC(=O)NC1C(OCc2ccccc2)OC(CO)C(O)C1OCC(=O)NC(C)C(=O)NC(CCC(=O)OCCNC(=O)c1cccc2cc3ccccc3nc12)C(N)=O (stereo not given) | – | – | – | 20.3 µM (inactive) | – |
| CC(=O)OCC12CN(C#N)C3C4COC(CC41)C1(C(=O)N(C)c4ccccc41)C32 (stereo not given) | – | – | – | 2.64 µM (inactive) | – |
| CCCCCCCCCCCCCC(=O)OCC(C[As](=O)(O)O)OC(=O)CCCCCCCCCCCCC (stereo not given) | > 100 µM (inactive) | > 100 µM (inactive) | > 100 µM (inactive) | – | GI50 (RXF 631): > 100 µM (inactive); GI50 (HOP-18): > 100 µM (inactive); GI50 (KM-20L2): > 100 µM (inactive); GI50 (XF498): > 100 µM (inactive) |
| Brc1ccc(C[P+]2(c3ccccc3)CCCCC2)cc1.[O-][Cl+3]([O-])([O-])[O-] | > 100 µM (inactive) | 37.7 µM (inactive) | 25.1 µM (inactive) | – | GI50 (M19-MEL): 25.4 µM (inactive); GI50 (HOP-18): > 100 µM (inactive); GI50 (KM-20L2): 61.2 µM (inactive); GI50 (XF498): < 0.01 µM (active) |
| CCOC(=O)/N=c1/nc(N(C)C)ss1 | > 100 µM (inactive) | > 100 µM (inactive) | > 100 µM (inactive) | – | GI50 (RXF 631): > 100 µM (inactive); GI50 (HOP-18): > 100 µM (inactive); GI50 (KM-20L2): > 100 µM (inactive); GI50 (XF498): > 100 µM (inactive) |
| N#CC1(C#N)NC(c2ccsc2)C(C#N)(C#N)NC1c1ccsc1 (stereo not given) | – | – | – | > 100 µM (inactive) | – |
| CCN(CC)CCn1c(=O)c2ccccc2n2c3c(=O)n(C)c(=O)n(C)c3nc12 | – | – | – | 1.19 µM (inactive) | – |
| O=c1c2c(sc3ccccc13)NCN(CCc1ccccc1)C2 | – | – | – | 23.1 µM (inactive) | – |
| CC(C)(C)OC(=O)NC(Cc1ccc(OCc2ccccc2)cn1)C(=O)N1CCCCC1 (stereo not given) | – | – | – | 24.5 µM (inactive) | – |
| COC(=O)c1ccccc1C1CN=NC12Cc1ccc3ccccc3c1C2=O (stereo not given) | – | – | – | > 100 µM (inactive) | – |
| CC(=O)NNc1nc(C)c(C(=O)/C=C/c2ccc(/C=C/C(=O)c3sc(NNC(C)=O)nc3C)cc2)s1 | > 100 µM (inactive) | > 100 µM (inactive) | > 100 µM (inactive) | – | GI50 (M19-MEL): > 100 µM (inactive); GI50 (RXF 631): > 100 µM (inactive); GI50 (XF498): > 100 µM (inactive) |
| O=C1c2ccccc2C(=O)N1c1nc(-c2ccc(Cl)cc2)cc(N2N=C(c3ccc(Br)cc3)CC2c2ccccc2)n1 (stereo not given) | – | – | – | 3.21 µM (inactive) | – |
| CC1=C(C)C2(C#N)C(=O)N3C(=NC(c4ccccc4)NC3c3ccccc3)C2(C#N)C(c2ccccc2)N1 (stereo not given) | – | – | – | > 100 µM (inactive) | – |

| Compound | GI50 (DLD-1) | GI50 (DMS-273) | GI50 (LXFL 529) | GI50 (BT-549) | other results |
| --- | --- | --- | --- | --- | --- |
| Cc1n[nH]c(=O)n1/N=C/c1ccco1 | – | – | – | > 100 µM (inactive) | – |
| O=C1C=C(Nc2ccc(Cl)cc2Cl)c2ccccc2C1=O | 44.5 µM (inactive) | 27.4 µM (inactive) | 27.2 µM (inactive) | – | GI50 (M19-MEL): 13.5 µM (inactive); GI50 (RXF 631): 34.5 µM (inactive); GI50 (KM-20L2): > 100 µM (inactive) |
| CN1C(Cl)=NS(=O)(=O)c2ccccc21 | – | – | – | > 100 µM (inactive) | – |
| CCOC(=O)COc1ccc(OCC(=O)OCC)c2c1C(=O)CCCC2=O | > 100 µM (inactive) | > 100 µM (inactive) | > 100 µM (inactive) | – | GI50 (M19-MEL): > 100 µM (inactive); GI50 (HOP-18): > 100 µM (inactive); GI50 (KM-20L2): > 100 µM (inactive); GI50 (XF498): > 100 µM (inactive) |
| Cc1ccc(/C=C2\CN(C)CC3C(c4ccc(C)cc4)=C(C#N)C(=O)NC23)cc1 (stereo not given) | – | – | – | > 50 µM (inactive) | – |
| FC(F)(F)C1(c2ccccc2)SCc2nc3ccccc3n21 (stereo not given) | – | – | – | > 100 µM (inactive) | – |
| COC(=O)C1=C(C(=O)OC)C2(c3ccccc3)c3ccccc3C(=O)C1N2C1CCCCC1 (stereo not given) | – | – | – | > 100 µM (inactive) | – |
| O=C(NCCCCNCCCNC(=O)c1cc(-c2ccccc2)nc2ccccc12)c1cc(-c2ccccc2)nc2ccccc12 | – | – | – | 9.66 µM (inactive) | – |
| CN1CC[C@@H](c2c(O)cc(O)c3c(=O)cc(-c4ccccc4Cl)oc23)[C@@H](O)C1 | 0.0528 µM (active) | 0.109 µM (active) | 0.124 µM (active) | 0.0395 µM (active) | GI50 (HOP-18): 0.0562 µM (active); GI50 (KM-20L2): 0.174 µM (active); GI50 (XF498): 0.149 µM (active) |
| CCCCCCCC/C=C/CCCCCCCC1CC(O)C(=O)O1 (stereo not given) | – | – | – | 28.9 µM (inactive) | – |
| COc1ccc2c(c1)N=C1CSC(c3cc([N+](=O)[O-])ccc3Cl)N1C2 (stereo not given) | – | – | – | 26.2 µM (inactive) | – |
| NC(=O)CCC(NC(=O)C(F)(F)F)C(=O)O (stereo not given) | > 100 µM (inactive) | > 100 µM (inactive) | > 100 µM (inactive) | – | GI50 (M19-MEL): > 100 µM (inactive); GI50 (HOP-18): > 100 µM (inactive); GI50 (KM-20L2): > 100 µM (inactive); GI50 (XF498): > 100 µM (inactive) |
| Cc1ccc(NC(=O)CC/C(CC(=O)c2ccc(F)cc2)=N\NC(=O)C(=O)NN)cc1C | > 100 µM (inactive) | > 100 µM (inactive) | > 100 µM (inactive) | – | GI50 (M19-MEL): > 100 µM (inactive); GI50 (RXF 631): > 100 µM (inactive); GI50 (HOP-18): > 100 µM (inactive); GI50 (KM-20L2): > 100 µM (inactive) |
| [N-]=[N+]=NC1=CC(=O)c2cccc3cccc1c23 | – | – | – | 27.1 µM (inactive) | – |
| Cc1c(Cl)ccc2c(=O)c3cccc(CC(=O)O)c3oc12 | – | – | – | 38.5 µM (inactive) | – |
| Cc1ccn2c(CCc3nnc4cc(C)ccn34)nnc2c1 | – | – | – | > 100 µM (inactive) | – |
